Results as given in the NIST ThermoML archive (doi:10.1016/j.jct.2005.05.007).
Numbers after ± are expanded uncertainties.

Tests used:
[1] = 298.15 K; 101.33 kPa; Liquid; Vibrating tube method
[2] = refractive index (Na D-line) (dimensionless); settings: 298.15 K; 101.33 kPa; Liquid; Standard Abbe refractometry
[3] = xn = mol fraction of the nth substance listed; settings: 298.15 K, 101 kPa, Liquid, Vibrating tube method

CCCCO [butan-1-ol]
mass density [1]: 805.8 ± 0.8 kg/m3 | refractive index [2]: 1.397 ± 0.0008

CCO [ethanol]
mass density [1]: 785.1 ± 0.4 kg/m3 | refractive index [2]: 1.3593 ± 0.0008

CO [methanol]
mass density [1]: 786.6 ± 0.4 kg/m3 | refractive index [2]: 1.3265 ± 0.0008

CCCCCO [pentan-1-ol]
mass density [1]: 810.8 ± 0.8 kg/m3 | refractive index [2]: 1.4078 ± 0.0008

CCCO [propan-1-ol]
mass density [1]: 799.6 ± 0.4 kg/m3 | refractive index [2]: 1.3834 ± 0.0008

CC(C)O [propan-2-ol]
mass density [1]: 780.9 ± 0.4 kg/m3 | refractive index [2]: 1.3748 ± 0.0008

CCC#N [propanenitrile]
mass density [1]: 776.8 ± 0.4 kg/m3 | refractive index [2]: 1.3633 ± 0.0008

CCC#N [propanenitrile] + CC(C)O
mass density ([3]; x2 = 0.0579): 776.1 ± 0.4 kg/m3 | mass density ([3]; x2 = 0.0955): 775.8 ± 0.4 kg/m3 | mass density ([3]; x2 = 0.1396): 775.5 ± 0.4 kg/m3 | mass density ([3]; x2 = 0.183): 775.4 ± 0.4 kg/m3 | mass density ([3]; x2 = 0.2321): 775.3 ± 0.4 kg/m3 | mass density ([3]; x2 = 0.2775): 775.4 ± 0.4 kg/m3 | mass density ([3]; x2 = 0.3274): 775.5 ± 0.4 kg/m3 | mass density ([3]; x2 = 0.3784): 775.6 ± 0.4 kg/m3 | mass density ([3]; x2 = 0.4249): 775.8 ± 0.4 kg/m3 | mass density ([3]; x2 = 0.4768): 776 ± 0.4 kg/m3 | mass density ([3]; x2 = 0.5385): 776.4 ± 0.4 kg/m3 | mass density ([3]; x2 = 0.5752): 776.6 ± 0.4 kg/m3 | mass density ([3]; x2 = 0.6307): 777 ± 0.4 kg/m3 | mass density ([3]; x2 = 0.6763): 777.4 ± 0.4 kg/m3 | mass density ([3]; x2 = 0.7286): 777.9 ± 0.4 kg/m3 | mass density ([3]; x2 = 0.7788): 778.4 ± 0.4 kg/m3 | mass density ([3]; x2 = 0.8384): 779.1 ± 0.4 kg/m3 | mass density ([3]; x2 = 0.8929): 779.7 ± 0.4 kg/m3 | mass density ([3]; x2 = 0.9416): 780.2 ± 0.4 kg/m3

CCC#N [propanenitrile] + CCCCCO
mass density ([3]; x2 = 0.0353): 778.3 ± 0.4 kg/m3 | mass density ([3]; x2 = 0.0649): 779.6 ± 0.5 kg/m3 | mass density ([3]; x2 = 0.1026): 781.1 ± 0.5 kg/m3 | mass density ([3]; x2 = 0.1379): 782.6 ± 0.5 kg/m3 | mass density ([3]; x2 = 0.1786): 784.2 ± 0.5 kg/m3 | mass density ([3]; x2 = 0.2164): 785.7 ± 0.5 kg/m3 | mass density ([3]; x2 = 0.2613): 787.5 ± 0.5 kg/m3 | mass density ([3]; x2 = 0.3031): 789.1 ± 0.5 kg/m3 | mass density ([3]; x2 = 0.3464): 790.7 ± 0.6 kg/m3 | mass density ([3]; x2 = 0.3917): 792.4 ± 0.6 kg/m3 | mass density ([3]; x2 = 0.4396): 794.1 ± 0.6 kg/m3 | mass density ([3]; x2 = 0.489): 795.8 ± 0.6 kg/m3 | mass density ([3]; x2 = 0.5444): 797.7 ± 0.6 kg/m3 | mass density ([3]; x2 = 0.6012): 799.5 ± 0.7 kg/m3 | mass density ([3]; x2 = 0.6547): 801.2 ± 0.7 kg/m3 | mass density ([3]; x2 = 0.7186): 803.2 ± 0.7 kg/m3 | mass density ([3]; x2 = 0.7788): 804.9 ± 0.7 kg/m3 | mass density ([3]; x2 = 0.8488): 806.9 ± 0.8 kg/m3 | mass density ([3]; x2 = 0.9162): 808.7 ± 0.8 kg/m3

CCC#N [propanenitrile] + CCCCO
mass density ([3]; x2 = 0.0391): 778 ± 0.4 kg/m3 | mass density ([3]; x2 = 0.1177): 780.4 ± 0.4 kg/m3 | mass density ([3]; x2 = 0.1625): 781.8 ± 0.4 kg/m3 | mass density ([3]; x2 = 0.1984): 782.9 ± 0.4 kg/m3 | mass density ([3]; x2 = 0.2481): 784.4 ± 0.4 kg/m3 | mass density ([3]; x2 = 0.3398): 787.4 ± 0.4 kg/m3 | mass density ([3]; x2 = 0.385): 788.7 ± 0.4 kg/m3 | mass density ([3]; x2 = 0.4364): 790.2 ± 0.4 kg/m3 | mass density ([3]; x2 = 0.4813): 791.6 ± 0.4 kg/m3 | mass density ([3]; x2 = 0.539): 793.3 ± 0.4 kg/m3 | mass density ([3]; x2 = 0.5821): 794.6 ± 0.4 kg/m3 | mass density ([3]; x2 = 0.6363): 796.2 ± 0.4 kg/m3 | mass density ([3]; x2 = 0.7036): 798.1 ± 0.4 kg/m3 | mass density ([3]; x2 = 0.7441): 799.2 ± 0.4 kg/m3 | mass density ([3]; x2 = 0.8103): 801 ± 0.4 kg/m3 | mass density ([3]; x2 = 0.8795): 802.8 ± 0.4 kg/m3 | mass density ([3]; x2 = 0.9334): 804.1 ± 0.4 kg/m3

CCC#N [propanenitrile] + CCCO
mass density ([3]; x2 = 0.0465): 777.6 ± 0.4 kg/m3 | mass density ([3]; x2 = 0.0955): 778.5 ± 0.4 kg/m3 | mass density ([3]; x2 = 0.143): 779.4 ± 0.4 kg/m3 | mass density ([3]; x2 = 0.1882): 780.3 ± 0.4 kg/m3 | mass density ([3]; x2 = 0.2387): 781.4 ± 0.4 kg/m3 | mass density ([3]; x2 = 0.2837): 782.4 ± 0.4 kg/m3 | mass density ([3]; x2 = 0.3347): 783.6 ± 0.4 kg/m3 | mass density ([3]; x2 = 0.3775): 784.6 ± 0.4 kg/m3 | mass density ([3]; x2 = 0.4341): 786 ± 0.4 kg/m3 | mass density ([3]; x2 = 0.4827): 787.2 ± 0.4 kg/m3 | mass density ([3]; x2 = 0.5841): 789.7 ± 0.4 kg/m3 | mass density ([3]; x2 = 0.6371): 791 ± 0.4 kg/m3 | mass density ([3]; x2 = 0.7389): 793.5 ± 0.4 kg/m3 | mass density ([3]; x2 = 0.7795): 794.5 ± 0.4 kg/m3 | mass density ([3]; x2 = 0.8329): 795.8 ± 0.4 kg/m3 | mass density ([3]; x2 = 0.8919): 797.2 ± 0.4 kg/m3 | mass density ([3]; x2 = 0.9355): 798.2 ± 0.4 kg/m3

CCC#N [propanenitrile] + CCO
mass density ([3]; x2 = 0.0627): 776.8 ± 0.4 kg/m3 | mass density ([3]; x2 = 0.129): 777 ± 0.4 kg/m3 | mass density ([3]; x2 = 0.1754): 777.2 ± 0.4 kg/m3 | mass density ([3]; x2 = 0.2486): 777.6 ± 0.4 kg/m3 | mass density ([3]; x2 = 0.2872): 777.9 ± 0.4 kg/m3 | mass density ([3]; x2 = 0.3419): 778.4 ± 0.4 kg/m3 | mass density ([3]; x2 = 0.3978): 778.9 ± 0.4 kg/m3 | mass density ([3]; x2 = 0.4563): 779.5 ± 0.4 kg/m3 | mass density ([3]; x2 = 0.5001): 780 ± 0.4 kg/m3 | mass density ([3]; x2 = 0.5577): 780.6 ± 0.4 kg/m3 | mass density ([3]; x2 = 0.6025): 781.1 ± 0.4 kg/m3 | mass density ([3]; x2 = 0.6433): 781.6 ± 0.4 kg/m3 | mass density ([3]; x2 = 0.6925): 782.2 ± 0.4 kg/m3 | mass density ([3]; x2 = 0.7416): 782.7 ± 0.4 kg/m3 | mass density ([3]; x2 = 0.7823): 783.2 ± 0.4 kg/m3 | mass density ([3]; x2 = 0.8218): 783.6 ± 0.4 kg/m3 | mass density ([3]; x2 = 0.8737): 784.2 ± 0.4 kg/m3 | mass density ([3]; x2 = 0.9146): 784.6 ± 0.4 kg/m3 | mass density ([3]; x2 = 0.9565): 784.9 ± 0.4 kg/m3

CCC#N [propanenitrile] + CO
mass density ([3]; x2 = 0.0822): 777.3 ± 0.4 kg/m3 | mass density ([3]; x2 = 0.1672): 777.9 ± 0.4 kg/m3 | mass density ([3]; x2 = 0.2338): 778.4 ± 0.4 kg/m3 | mass density ([3]; x2 = 0.2992): 779 ± 0.4 kg/m3 | mass density ([3]; x2 = 0.3634): 779.7 ± 0.4 kg/m3 | mass density ([3]; x2 = 0.4258): 780.3 ± 0.4 kg/m3 | mass density ([3]; x2 = 0.4879): 781 ± 0.4 kg/m3 | mass density ([3]; x2 = 0.5403): 781.6 ± 0.4 kg/m3 | mass density ([3]; x2 = 0.5844): 782.1 ± 0.4 kg/m3 | mass density ([3]; x2 = 0.6226): 782.6 ± 0.4 kg/m3 | mass density ([3]; x2 = 0.6752): 783.3 ± 0.4 kg/m3 | mass density ([3]; x2 = 0.7183): 783.8 ± 0.4 kg/m3 | mass density ([3]; x2 = 0.763): 784.4 ± 0.4 kg/m3 | mass density ([3]; x2 = 0.7996): 784.8 ± 0.4 kg/m3 | mass density ([3]; x2 = 0.8366): 785.3 ± 0.4 kg/m3 | mass density ([3]; x2 = 0.8743): 785.8 ± 0.4 kg/m3 | mass density ([3]; x2 = 0.9088): 786.1 ± 0.4 kg/m3 | mass density ([3]; x2 = 0.9384): 786.3 ± 0.4 kg/m3 | mass density ([3]; x2 = 0.9696): 786.5 ± 0.4 kg/m3
